Reference: the supplement of paper PMC3974653
Where a name gives a salt, the structure may show the parent alone.

System: MTT (mouse pheochromocytoma)
Test: IC50 of cell viability (ATP content)
Conditions: (24 or 48 h)
In short: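 Library compounds were tested at 8 final concentrations (0.5 nM to 46 µM) on MTT mouse pheochromocytoma cells for 24 or 48 hrs, with readout by CellTiter-Glo ATP luminescence. Signals were normalised with positive-control wells at 100% and DMSO wells at 0%. IC50 values were obtained by a four-parameter logistic fit.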

SMILES	IC50 of cell viability [µM]
CN(C)C/C=C(/c1ccc(Br)cc1)c1cccnc1.Cl.Cl [Zimelidine dihydrochloride]	> 46
C[C@@H]1C[C@@H]2[C@H]3CC\C4=C\C(=O)\C=C/[C@]4(C)[C@]3(F)[C@@H](O)C[C@@]2(C)[C@@]1(O)C(=O)COC(C)=O [Dexamethasone acetate]	> 46
Nc1ccc(O)c([N+](=O)[O-])c1 [4-Amino-2-nitrophenol]	> 46
CC(=O)C1(O)CCC2C3CC(C)C4=CC(=O)CCC4(C)C3CCC21C (stereo not drawn) [Medroxyprogesterone]	> 46
CC(C)NNC(=O)c1ccncc1.O=[S+]([O-])(O)O [IPRONIAZID SULFATE]	> 46
CC=1C2=CC3=N/C(=C/C4=C(C(=C(N4)/C=C/5\N=C(/C=C(/C1CCC(=O)O)\N2)C(=C5C)CCC(=O)OC)C=C)C)/C6=CC=C([C@H]([C@]36C)C(=O)OC)C(=O)OC.CC1=C2/C=C/3\N=C(/C=C/4\C(=C(/C(/N4)=C/C5=N/C(=C\C(=C1CCC(=O)OC)N2)/C(=C5C)CCC(=O)O)C=C)C)C6=CC=C([C@H]([C@]36C)C(=O)OC)C(=O)OC [Verteporfin]	> 46
Clc1ccc(Cn2c(CN3CCCC3)nc3ccccc32)cc1 [Clemizole hydrochloride]	> 46
CC1CCc2c(N3CCC(O)CC3)c(F)cc3c(=O)c(C(=O)O)cn1c23 (stereo not drawn) [Nadifloxacin]	> 46
O=C(CC1NCCC[C@H]1O)Cn1cnc2cc(Br)c(Cl)cc2c1=O (stereo partly drawn) [HALOFUGINONE LACTATE]	> 46
C[C@@H]1[C@H](O)[C@@H](C)/C=C/C=C/C=C/C=C/C=C/C=C/C=C/[C@H](O[C@@H]2O[C@H](C)[C@@H](O)[C@H](N)[C@@H]2O)C[C@@H]2O[C@](O)(C[C@@H](O)C[C@@H](O)[C@H](O)CC[C@@H](O)C[C@@H](O)CC(=O)O[C@H]1C)C[C@H](O)[C@H]2C(=O)O [Amphotericin B]	> 46
CC(=O)c1ccc([S+](=O)([O-])NC(=O)NC2CCCCC2)cc1 [Acetohexamide]	> 46
CC[C@H]1OC(=O)[C@H](C)[C@@H](O[C@H]2C[C@@](C)(OC)[C@@H](O)[C@H](C)O2)[C@H](C)[C@@H](O[C@@H]2O[C@H](C)C[C@H](N(C)C)[C@H]2O)[C@](C)(O)C[C@@H](C)CN(C)[C@H](C)[C@@H](O)[C@]1(C)O [Azithromycin]	> 46
CCCCC/C=C\C/C=C\C/C=C\C/C=C\CCCC(=O)NCC(=O)O [N-ARACHIDONYLGLYCINE]	> 46
CCC(COC(=O)c1cc(OC)c(OC)c(OC)c1)(c1ccccc1)N(C)C.O=C(O)/C=C\C(=O)O (stereo not drawn) [TRIMEBUTINE MALEATE]	> 46
CCOC(=O)c1c(C)n(C)c2ccc(O)cc12 [Mecarbinate]	> 46
CN1CCN(C2=Nc3ccccc3Sc3ccc(Cl)cc32)CC1 [Clothiapine]	> 46
c1ccc(CN2CCNCC2)cc1 [1-Benzylpiperazine]	> 46
C#C[C@]1(O)CC[C@H]2[C@@H]3CCC4=CC(=O)CCC4=C3C=C[C@@]21CC [GESTRINONE]	> 46
Nc1ncnc2c1ncn2[C@@H]1O[C@H](COP(=O)(O)OP(=O)(O)OP(=O)(O)O)[C@@H](O)[C@H]1O [ADENOSINE TRIPHOSPHATE]	> 46

SMILES	IC50 of cell viability [µM]
CC1OC(OC2C(O)CC(OC3C(O)CC(OC4CCC5(C)C(CCC6C5CCC5(C)C(C7=CC(=O)OC7)CCC65O)C4)OC3C)OC2C)CC(O)C1O (stereo not drawn) [Digitoxin]	> 46
CCCCCCCCCCCCCCCCOP(=O)([O-])OCC[N+](C)(C)C [MILTEFOSINE]	> 46
COc1ccc(C[C@H](C)NC[C@@H](O)c2ccc(O)c(NC=O)c2)cc1 [Formoterol hemifumarate]	> 46
CN(C)[C@@H]\1[C@H]2C[C@H]3\C(=C(\O)[C@@]2(O)C(=O)\C(=C1O)C(=O)NCN4CCCC4)C(=O)C5=C(C=CC=C5O)[C@]3(C)O [Solvocillin]	> 46
CC1(C)S[C@H]2[C@H](NC(=O)C3(N)CCCCC3)C(=O)[N@]2[C@H]1C(O)=O [Cyclacillin]	> 46
C=C/C=C/CC1=C(C)[C@@H](OC(=O)[C@@H]2[C@@H](/C=C(\C)C(=O)OC)C2(C)C)CC1=O.C=C/C=C/CC1=C(C)[C@@H](OC(=O)[C@@H]2[C@@H](C=C(C)C)C2(C)C)CC1=O [PYRETHRINS/Pestanal]	> 46
N=C1NCCC(C2NC(=O)/C(=C/NC(N)=O)NC(=O)C(CNC(=O)CC(N)CCCN)NC(=O)C(CO)NC(=O)C(N)CNC2=O)N1 (stereo not drawn) [CAPREOMYCIN SULFATE]	> 46
Cc1noc(N[S+](=O)([O-])c2ccc(N)cc2)c1C [Sulfisoxazole]	> 46
CN1C[C@@H](\C=C\2[C@H]1CC3=C[NH]C4=C3C2=CC=C4)C(=O)N[C@]5(C)O[C@@]6(O)[C@@H]7CCCN7C(=O)[C@H](CC8=CC=CC=C8)N6C5=O.CN9C[C@@H](\C=C\%10[C@H]9CC%11=C[NH]C%12=C%11C%10=CC=C%12)C(=O)N[C@]%13(C)O[C@@]%14(O)[C@@H]%15CCCN%15C(=O)[C@H](CC%16=CC=CC=C%16)N%14C%13=O.O[C@H]([C@@H](O)C([O-])=O)C(O)=O [Ergotamine D-tartrate]	> 46
CC(C)CCCC(C)C1CC(=O)C2=C3CCC4CC(O)CCC4(C)C3CCC21C (stereo not drawn) [Colestolone]	> 46
CN1C(=O)CN=C(c2ccccc2)c2cc([N+](=O)[O-])ccc21 [nimetazepam]	> 46
NCC[C@H](O)C(=O)N[C@@H]1C[C@@H](N)[C@@H](O[C@@H]2O[C@@H](CN)[C@@H](O)[C@@H](O)[C@H]2N)[C@@H](O[C@@H]2O[C@@H](CO)[C@@H](O)[C@H]2O)[C@H]1O [Butirosin disulfate salt]	> 46
O=C(O)CCC(=O)O [SUCCINIC ACID]	> 46
CN1/C=C(/[S+](C)[O-])C(=O)C2=C1C=C(F)C=C2 (stereo not drawn) [Flosequinan]	> 46
C[C@]12CC[C@@H]3c4ccc(O)cc4C[C@@H](CCCCCCCCC[S+]([O-])CCCC(F)(F)C(F)(F)F)C3[C@@H]1CC[C@@H]2O (stereo partly drawn) [Fulvestrant]	> 46
O=C(CCCN1CCC(C(=O)c2ccc(F)cc2)CC1)c1ccc(F)cc1 [Lenperone]	> 46
CC(C)(O)c1ccccc1CC[C@H](SCC1(CC(=O)[O-])CC1)c1cccc(/C=C/c2ccc3ccc(Cl)cc3n2)c1 [MONTELUKAST SODIUM]	> 46
CN/C(=C\[N+](=O)[O-])NCCSCc1csc(CN(C)C)n1 [Nizatidine]	> 46
C[C@H](NC(C)(C)C)C(=O)c1cccc(Cl)c1 [Bupropion hydrochloride]	> 46
